# Test results taken from patent publication US20060035829A1, “Chemokine combinations to mobilize progenitor/stem cells” (AnorMED Inc., priority 2004, published 2006).
# Key:
# [1] = system: CFU-GM progenitor cells in peripheral blood; experiment: Peripheral blood progenitor cell (PBSC) mobilization, CFU-GM assay of PBMC; assay type: in vivo; settings: BALB/c mice, mean (X)
# Protocol: Experimental procedures are as previously described (Pelus, L. M., et al., Blood (2001) 97:1534-1542; Blood (2004) 103:110-119). […] Mobilization experiments were performed in BALB/c mice (3 mice group). For mobilization with AMD3100 or GROβ alone, PBSC mobilization was quantified at the peak of mobilization determined for either agent in previous experiments. Thus, PBSC mobilization was quantified at 15 mins following an s.c. injection of 2.5 mg/kg GROβ and at 1 hour following an s.c. injection of 5 mg/kg AMD3100. In the combination experiment, PBSC mobilization was quantitated at 5, 15, 30, 60 and 150 minutes after a single subcutaneous injection of 2.5 mg/kg GROβ (R & D Systems) in saline and 5 mg/kg AMD3100. The compounds were injected separately and simultaneously at different s.c. sites. Injections were scheduled so that control and mobilized mice were evaluated at the same time in every experiment. Mice were killed by CO2 asphyxiation and blood was obtained by cardiac puncture using syringes coated with EDTA (ethylenediaminetetra acetic acid). PBMC's were obtained by separation of peripheral blood (0.4 mL) on Lympholyte-M (Cedarlane Labs, Hornby, ON, Canada). Complete blood counts (CBC's) were performed on a Hemavet Mascot (CDC Technologies, Oxford, Conn.). Manual differentials were performed on Wright-Giemsa-stained (Hema-Tek 1000, Bayer, Elkhart, Ind.) blood smears or spleen and bone marrow cell cytospin preparations (Shandon, Pittsburgh, Pa.). CFU-GM Assay PBMC's were assayed for CFU-GM in McCoy 5A media with 15% heat-inactivated fetal bovine serum (Hyclone Sterile Systems, Logan, Utah) and 0.3% agar (Difco Laboratories, Detroit, Mich.). PBMC's were cultured at 2×10^5/mL. CFU-GM were stimulated with 10 ng/mL recombinant murine GM-CSF (rmGM-CSF), 10 ng/mL rmIL-1α, and 50 ng/mL stem cell factor (SCF). Triplicate cultures from individual animals were incubated at 37° C., 5% CO2, 5% O2 in air for 7 days. Total CFU-GM/mL blood was determined by multiplying CFU frequencies by PBMC/ml blood corrected for white blood cell (WBC) recovery after Lympholyte-M separation.
# peripheral blood cells = experiment: Peripheral blood differential summary (complete blood counts, manual differentials); assay type: in vivo; settings: BALB/c mice
# Protocol: Mobilization experiments were performed in BALB/c mice (3 mice group). For mobilization with AMD3100 or GROβ alone, PBSC mobilization was quantified at the peak of mobilization determined for either agent in previous experiments. Thus, PBSC mobilization was quantified at 15 mins following an s.c. injection of 2.5 mg/kg GROβ and at 1 hour following an s.c. injection of 5 mg/kg AMD3100.
# In the combination experiment, PBSC mobilization was quantitated at 5, 15, 30, 60 and 150 minutes after a single subcutaneous injection of 2.5 mg/kg GROβ (R & D Systems) in saline and 5 mg/kg AMD3100. The compounds were injected separately and simultaneously at different s.c. sites. Injections were scheduled so that control and mobilized mice were evaluated at the same time in every experiment. Mice were killed by CO2 asphyxiation and blood was obtained by cardiac puncture using syringes coated with EDTA (ethylenediaminetetra acetic acid). PBMC's were obtained by separation of peripheral blood (0.4 mL) on Lympholyte-M (Cedarlane Labs, Hornby, ON, Canada). Complete blood counts (CBC's) were performed on a Hemavet Mascot (CDC Technologies, Oxford, Conn.). Manual differentials were performed on Wright-Giemsa-stained (Hema-Tek 1000, Bayer, Elkhart, Ind.) blood smears or spleen and bone marrow cell cytospin preparations (Shandon, Pittsburgh, Pa.).
Molecule,"CFU-GM/ml ([1]; 60 min after s.c. injection (GROβ 2.5 mg/kg, AMD3100 5 mg/kg))",CFU-GM Mobilized Above Control ([1]; 60 min after s.c. injection),Fold Inc (CFU-GM/ml over PBS control) ([1]; 60 min after s.c. injection),% LYMPH (peripheral blood cells; 60 min after s.c. injection),% MONO (peripheral blood cells; 60 min after s.c. injection),% PMN (peripheral blood cells; 60 min after s.c. injection),LYMPH (peripheral blood cells; 60 min after s.c. injection),MONO (peripheral blood cells; 60 min after s.c. injection),PMN (peripheral blood cells; 60 min after s.c. injection),WBC (peripheral blood cells; 60 min after s.c. injection),"CFU-GM/ml ([1]; 15 min after s.c. injection (GROβ 2.5 mg/kg, AMD3100 5 mg/kg))",CFU-GM Mobilized Above Control ([1]; 15 min after s.c. injection),Fold Inc (CFU-GM/ml over PBS control) ([1]; 15 min after s.c. injection),% LYMPH (peripheral blood cells; 15 min after s.c. injection),% MONO (peripheral blood cells; 15 min after s.c. injection),% PMN (peripheral blood cells; 15 min after s.c. injection),LYMPH (peripheral blood cells; 15 min after s.c. injection),MONO (peripheral blood cells; 15 min after s.c. injection),PMN (peripheral blood cells; 15 min after s.c. injection),WBC (peripheral blood cells; 15 min after s.c. injection)
"c1cc(CN2CCCNCCNCCCNCC2)ccc1CN1CCCNCCNCCCNCC1 [AMD3100, 1,1′-[1,4-phenylene-bis(methylene)]-bis-1,4,8,11-tetraazacyclotetradecane]",698.19 CFU-GM/ml,576.15,5.72,59.17%,3.27%,36.61%,8.54,0.47,5.35,14.49,–,–,–,–,–,–,–,–,–,–
GROβ: chemokine GROβ (R & D Systems) in saline; acts via the CXCR2 receptor,–,–,–,–,–,–,–,–,–,–,2505.54 CFU-GM/ml,2383.50,20.53,65.19%,5.65%,27.35%,7.76,0.67,3.34,11.98
